Laboratory results reported in US12460265B2, “Post-treatment breast cancer prognosis” (Biotheranostics, Inc., priority 2010, dated 2025).

Columns and labels:
ER+ breast cancer = test: NCIC CTG MA.17 case-control study: cancer recurrence after 5 years of adjuvant tamoxifen, letrozole vs placebo; type: in vivo, human; details: for Cases (cancer recurrence), number / Cases (cancer recurrence), percent: Letrozole arm
Source text: Samples from the NCIC CTG MA.17 cohort (see Goss et al., J. Clin. Oncol., 26(12):1948-1955, 2008) were used. 100 cases with 200 controls were used. The 100 cases included 61 cases of distant cancer recurrence; 17 cases of local cancer recurrence; 5 cases of regional cancer recurrence; 16 cases of contralateral recurrences; and 1 unknown case. Of these, the contralateral and unknown cases were excluded.
Clinical follow-up data were available for the samples used, which were formalin-fixed paraffin-embedded (FFPE) tumor blocks from the time of diagnosis. Odds ratios were calculated with analysis of BCI, H:I, HoxB13 and MGI as continuous and categorical variables. Multivariate analysis also included age, tumor grade and treatment in the analysis. Treatment interaction: age and tumor grade were also included in the analysis. P-values were calculated for the interaction term.
STATISTICAL ANALYSES: Kaplan-Meier analysis with logrank test and Cox proportional hazards regression were performed to assess the association of gene expression indexes with clinical outcome. Multivariate Cox regression models were performed to assess the prognostic capacity of gene expression indexes after adjusting for known prognostic factors.
Proportional hazards (PH) assumption was checked by scaled Schoenfeld residuals; variables violating PH assumption were adjusted for in the model through stratification. To account for the case-cohort design of the Table 1 cohort, we used weighted Kaplan-Meier analysis and Cox regression models with modifications to handle case-cohort designs (see ^19,20 as implemented in the survey package in R (www.r-project.org). To test for interaction between dichotomized MGI and the H:I ratio in Cox regression models, the Wald statistic was used in the Table 1 cohort and likelihood ratio test was used in the last cohort.

[1] = system: primary ER+ breast cancer; details: post-tamoxifen treatment; subjects with primary ER+ breast cancer; cited from earlier work

N#Cc1ccc(C(c2ccc(C#N)cc2)n2cncn2)cc1 [Letrozole, letrozole]
Cases (cancer recurrence), number (ER+ breast cancer; High HoxB13 expression): 17
Cases (cancer recurrence), percent (ER+ breast cancer; High HoxB13 expression): (28%)
Cases (cancer recurrence), number (ER+ breast cancer; Low HoxB13 expression): 14
Cases (cancer recurrence), percent (ER+ breast cancer; Low HoxB13 expression): (23%)
Odds Ratio, Treatment (Placebo vs Letrozole), in relation to cancer recurrence (ER+ breast cancer; univariate analysis, MA.17 subjects, 95% CI in the next column): 2.02
breast cancer-free survival and distant breast cancer-free survival [1]: improves breast cancer-free survival and distant breast cancer-free survival
